Measurements: the NIST ThermoML archive (doi:10.1016/j.tca.2012.07.024)
± gives the expanded uncertainty stated by the source.

Assay: xn = mol fraction of the nth substance listed
Conditions: Liquid, Vibrating tube method, x1 = 0.33

C[N+](C)(C)CCO.[Cl-] [choline chloride] + OCCO
mass density [kg/m3]
Conditions	298.15 K	303.15 K	308.15 K	313.15 K	318.15 K	323.15 K
100 kPa	1117.4 ± 2.4	1114.5 ± 2.4	1111.6 ± 2.4	1108.7 ± 2.4	1105.9 ± 2.4	1103 ± 2.4
5000 kPa	1119 ± 2.5	1116.1 ± 2.5	1113.2 ± 2.4	1110.3 ± 2.4	1107.5 ± 2.4	1104.7 ± 2.4
10000 kPa	1120.6 ± 2.5	1117.7 ± 2.5	1114.8 ± 2.5	1111.9 ± 2.4	1109.1 ± 2.4	1106.3 ± 2.4
15000 kPa	1122.1 ± 2.5	1119.3 ± 2.5	1116.4 ± 2.5	1113.5 ± 2.5	1110.7 ± 2.5	1107.9 ± 2.4
20000 kPa	1123.6 ± 2.5	1120.8 ± 2.5	1117.9 ± 2.5	1115.1 ± 2.5	1112.3 ± 2.5	1109.5 ± 2.5
25000 kPa	1125.1 ± 2.5	1122.3 ± 2.5	1119.5 ± 2.5	1116.6 ± 2.5	1113.8 ± 2.5	1111 ± 2.5
30000 kPa	1126.6 ± 2.5	1123.8 ± 2.5	1121 ± 2.5	1118.2 ± 2.5	1115.4 ± 2.5	1112.6 ± 2.5
35000 kPa	1128.1 ± 2.5	1125.3 ± 2.5	1122.5 ± 2.5	1119.7 ± 2.5	1116.9 ± 2.5	1114.1 ± 2.5
40000 kPa	1129.6 ± 2.6	1126.8 ± 2.5	1124 ± 2.5	1121.2 ± 2.5	1118.4 ± 2.5	1115.7 ± 2.5
45000 kPa	1131 ± 2.6	1128.2 ± 2.6	1125.5 ± 2.6	1122.7 ± 2.5	1119.9 ± 2.5	1117.2 ± 2.5
50000 kPa	1132.4 ± 2.6	1129.6 ± 2.6	1126.9 ± 2.6	1124.1 ± 2.6	1121.4 ± 2.6	1118.7 ± 2.5
